Experimental data taken from US12435044B2, “Pyridazinone herbicides and pyridazinone intermediates used to prepare a herbicide” (FMC Corporation, priority 2018, dated 2025).

Assays:
Format in all cases: in vivo
[1] = tested on: mustard, wild (Sinapis arvensis); assay: Test C postemergence greenhouse test; settings: scale 0 to 100
How it was run: (§1)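 Test chemicals were formulated in a non-phytotoxic solvent mixture with surfactant and applied preemergence to seeds in silt loam soil or postemergence to plants of 2 to 18 cm in a peat/vermiculite medium. After 13 to 21 d in a greenhouse, response was visually scored from 0 (no effect) to 100 (complete control).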

[2] = tested on: cutleaf geranium (Geranium dissectum); assay: Test C postemergence greenhouse test; settings: scale 0 to 100
How it was run: as §1

[3] = tested on: monochoria (Monochoria vaginalis); assay: Test F flooded paddy test; settings: Flood, after 21 d
Excerpt: (§2) Three plastic pots (ca. 16-cm diameter) per rate were partially filled with sterilized Tama silt loam soil comprising a 35:50:15 ratio of sand, silt and clay and 2.6% organic matter. Separate plantings for each of the three pots were as follows. Seeds from the U.S. of monochoria (Monochoria vaginalis), sedge, umbrella (small-flower umbrella sedge, Cyperus difformis) and redstem (purple redstem, Ammannia coccinea), were planted into one 16-cm pot for each rate. Seeds from the U.S. of rice flatsedge (Cyperus iria), sprangletop, Brdd. (bearded sprangletop, Leptochloa fascicularis), one stand of 9 or 10 water seeded rice seedlings (Rice, W. S. Jap, Oryza sativa cv. ‘Japonica-M202’ or Rice, W. S. Ind, ‘Indica’), and two stands of 3 or 4 transplanted rice seedlings (Oryza sativa cv. ‘Japonica-M202’) were planted into one 16-cm pot for each rate. Seeds from the U.S. of barnyardgrass (Echinochloa crus-galli), and late watergrass (Echinochloa oryzicola) were planted into one 16-cm pot for each rate.
(§3) Plantings were sequential so that crop and weed species were at the 2.0 to 2.5-leaf stage at time of treatment.
(§4) Potted plants were grown in a greenhouse with day/night temperature settings of 30/27° C., and supplemental balanced lighting was provided to maintain a 16-hour photoperiod. Test pots were maintained in the greenhouse until test completion.
(§5) At time of treatment, test pots were flooded to 3 cm above the soil surface, treated by application of test compounds directly to the paddy water, and then maintained at that water depth for the duration of the test. Effects of treatments on rice and weeds were visually evaluated by comparison to untreated controls after 21 d. Plant response ratings, summarized in Table F, are based on a scale of 0 to 100 where 0 is no effect and 100 is complete control. A dash (-) response means no test result.

[4] = tested on: barnyardgrass (Echinochloa crus-galli); assay: Test F flooded paddy test; settings: Flood, after 21 d
Excerpt: as §2, §3, §4, §5

[5] = tested on: late watergrass (Echinochloa oryzicola); assay: Test F flooded paddy test; settings: Flood, after 21 d
Excerpt: as §2, §3, §4, §5

[6] = tested on: water seeded rice seedlings (Rice, W. S. Jap, Oryza sativa cv. ‘Japonica-M202’ or Rice, W. S. Ind, ‘Indica’); assay: Test F flooded paddy test; settings: Flood, after 21 d
Excerpt: as §2, §3, §4, §5

[7] = tested on: transplanted rice seedlings (Oryza sativa cv. ‘Japonica-M202’); assay: Test F flooded paddy test; settings: Flood, after 21 d
Excerpt: as §2, §3, §4, §5

## Cc1ccc2ccc(Cl)cc2c1-c1c(O)c(Cl)nn(C)c1=O [Cpd. No. 22]
[1]; 16 g ai/ha
  Plant response rating, Mustard, Wild: 75
[1]; 31 g ai/ha
  Plant response rating, Mustard, Wild: 75
[1]; 62 g ai/ha
  Plant response rating, Mustard, Wild: 100
[1]; 125 g ai/ha
  Plant response rating, Mustard, Wild: 100
[2]; 16 g ai/ha
  Plant response rating, Cutleaf Geranium: 70
[2]; 31 g ai/ha
  Plant response rating, Cutleaf Geranium: 80
[2]; 62 g ai/ha
  Plant response rating, Cutleaf Geranium: 85
[2]; 125 g ai/ha
  Plant response rating, Cutleaf Geranium: 85

## Cc1ccc2ccc(C)c(-c3c(O)c(Cl)nn(C)c3=O)c2c1 [Cpd. No. 20, 6-chloro-4-(2,7-dimethyl-1-naphthalenyl)-5-hydroxy-2-methyl-3(2H)-pyridazinone]
[3]; 31 g ai/ha
  Plant response rating (0 to 100 scale): 10
[3]; 62 g ai/ha
  Plant response rating (0 to 100 scale): 90
[3]; 125 g ai/ha
  Plant response rating (0 to 100 scale): 95
[3]; 250 g ai/ha
  Plant response rating (0 to 100 scale): 99
[4]; 31 g ai/ha
  Plant response rating (0 to 100 scale): 0
[4]; 62 g ai/ha
  Plant response rating (0 to 100 scale): 0
[4]; 125 g ai/ha
  Plant response rating (0 to 100 scale): 43
[4]; 250 g ai/ha
  Plant response rating (0 to 100 scale): 65
[5]; 31 g ai/ha
  Plant response rating (0 to 100 scale): 0
[5]; 62 g ai/ha
  Plant response rating (0 to 100 scale): 35
[5]; 125 g ai/ha
  Plant response rating (0 to 100 scale): 50
[5]; 250 g ai/ha
  Plant response rating (0 to 100 scale): 73
[6]; 31 g ai/ha
  Plant response rating (0 to 100 scale): 0
[6]; 62 g ai/ha
  Plant response rating (0 to 100 scale): 0
[6]; 125 g ai/ha
  Plant response rating (0 to 100 scale): 5
[6]; 250 g ai/ha
  Plant response rating (0 to 100 scale): 23
[7]; 31 g ai/ha
  Plant response rating (0 to 100 scale): 0
[7]; 62 g ai/ha
  Plant response rating (0 to 100 scale): 0
[7]; 125 g ai/ha
  Plant response rating (0 to 100 scale): 0
[7]; 250 g ai/ha
  Plant response rating (0 to 100 scale): 0

## Cc1cc(Cl)c2ccccc2c1-c1c(O)c(Cl)nn(C)c1=O [Cpd. No. 65]
[3]; 64 g ai/ha
  Plant response rating (0 to 100 scale): 100
[3]; 125 g ai/ha
  Plant response rating (0 to 100 scale): 100
[4]; 64 g ai/ha
  Plant response rating (0 to 100 scale): 10
[4]; 125 g ai/ha
  Plant response rating (0 to 100 scale): 60
[5]; 64 g ai/ha
  Plant response rating (0 to 100 scale): 20
[5]; 125 g ai/ha
  Plant response rating (0 to 100 scale): 55
[6]; 64 g ai/ha
  Plant response rating (0 to 100 scale): 0
[6]; 125 g ai/ha
  Plant response rating (0 to 100 scale): 0
[7]; 64 g ai/ha
  Plant response rating (0 to 100 scale): 0
[7]; 125 g ai/ha
  Plant response rating (0 to 100 scale): 15
[1]; 16 g ai/ha
  Plant response rating, Mustard, Wild: 98
[1]; 31 g ai/ha
  Plant response rating, Mustard, Wild: 100
[1]; 62 g ai/ha
  Plant response rating, Mustard, Wild: 100
[1]; 125 g ai/ha
  Plant response rating, Mustard, Wild: 100
[2]; 16 g ai/ha
  Plant response rating, Cutleaf Geranium: 85
[2]; 31 g ai/ha
  Plant response rating, Cutleaf Geranium: 90
[2]; 62 g ai/ha
  Plant response rating, Cutleaf Geranium: 95
[2]; 125 g ai/ha
  Plant response rating, Cutleaf Geranium: 95
